# In publication PMC5988692, “AZ304, a novel dual BRAF inhibitor, exerts anti-tumour effects in colorectal cancer independently of BRAF genetic status” (British Journal of Cancer, 2018):
# Legend:
# [1] = system: RKO, HT-29, DiFi and Caco-2 cells; assay: Western blot analysis in selected CRC cell lines; format: cell-based, human; conditions: four CRC cell lines
# Experimental: For western-blotting in A375, A549 and MC-F7 cell lines, the detailed method was described in ref.[18] […] For western-blot in selected CRC cell lines, the cells were collected after treatment for indicated time and washed twice with cold PBS. Then cells were lysed in 1% Triton lysis buffer (50 mmol/L Tris-HCl, pH 7.4, 10 mmol/L EDTA, 100 mmol/L NaF, 150 mmol/L NaCl, 1% Triton X-100, 1 mmol/L PMSF 1 mmol/L Na3VO4 and 2 μg/mL aprotinin). After sonication and centrifugation, samples were quantified with the Lowry method. Next, all the protein samples were boiled at 95 °C for 5 min with 3× sampling buffer. After that, all the lysate samples were resolved by SDS polyacrylamide gel electrophoresis (SDS-PAGE) and followed by western blotting which means electronically transferred to nitrocellulose membranes. After blocking with 5% skim milk in TBST buffer (10 mM Tris-HCl pH 7.4, 150 mM NaCl, 0.1% Tween 20) at room temperature for 1 h, the blots were incubated with indicated antibodies shaking for 2 h, then overnight at 4 °C. Then the blots were washed four times with TBST buffer, and then incubated with secondary antibodies for 30 min at room temperature. After washing for another four times, the protein bands were detected with enhanced chemiluminescence reagent (SuperSignal Western Pico Chemiluminescent Substrate; Pierce, Rockford, IL, USA) and visualised with the Electrophoresis Gel Imaging Analysis System (DNR Bio-Imaging Systems, Jerusalem, Israel).
# Two V600E mutant BRAF cell lines (RKO, HT-29) and two wild-type BRAF cell lines (DiFi, Caco-2) were treated with DMSO or increasing concentrations of AZ304 (0, 0.1, 1, 10, 100 μM), for 48 h (a) and 72 h (b). Viable cells were determined by MTT assay. c EdU incorporation assay. Four cells lines from (a) were treated with DMSO or indicated AZ304 for 24 h, followed by incubation with EdU and Hoechst in sequence. Hoechst 33342 (blue) and EdU (red) represent cell nuclei and nuclei of proliferative cells, respectively. The percentages of the EdU-positive cells are presented (right). Student’s t-tests were used for statistical analyses. Data are plotted as mean ± SD. *P < 0.05 vs. control; **P < 0.01 vs. control. d These four cells lines from (a) were treated with DMSO or 2 uM AZ304 for 6 h. Expression levels of phosphorylation ERK were analysed by Western blot. e BRAF mutant cell line RKO, and BRAF wild type cell line Caco-2 were treated with DMSO or 2 uM AZ304 for the indicated times. Expression levels of phosphorylation ERK were analysed by Western blot. […] Cell viability was determined by MTT assay
# p-ERK in A375 cells = assay: A375 p-ERK cellular assay; format: cell-based; conditions: Homo sapiens, A-375, 1.25 h; A375 (V600E mutant BRAF melanoma), 75 min; read-out: mean EC50, reduction of ERK phosphorylation (p-ERK)
# Experimental: A375 cells were seeded into 96-well micro plates (Costar, Corning, and Lowell, MA) at […] in phenol red free DMEM (Invitrogen, Carlsbad, CA) supplemented with 10% foetal bovine serum. After 48 h, the cells were treated with DMSO or multiple concentrations of AZ304 and then returned to the incubator for 75 min. Medium were then aspirated and cells were fixed with a 6% formaldehyde solution for 20 min at room temperature. Cells were washed once with PBS containing 0.05% Triton X-100 (PBST) and 0.6% hydrogen peroxide added for 20 min at room temperature. After washing again in PBST, cells were blocked with 10% FBS/PBST solution for 1 h at room temperature. After washing, p-ERK monoclonal antibody was added and the plates were placed at 4 °C for overnight. […] Quantification of signal was determined at OD405 using a SpectraMax plate reader (Molecular Devices, Sunnyvale, CA). […] EC50 was calculated using XLift.
# Cells were incubated with DMSO or AZ304 for 75 min and p-ERK levels were determined using a p-ERK antibody based ELISA. […] Cells were incubated with DMSO or AZ304 (±EGF) for 75 min and p-ERK levels were determined using a p-ERK antibody based ELISA. […]
# [2] = system: RKO, HT-29, DiFi and Caco-2 cells; assay: MTT assay with EGF stimulation; format: cell-based, human; conditions: four CRC cell lines, AZ304 + EGF (20 ng/ml) vs AZ304 alone, 72 h
# Experimental: The proliferation assays in selected colorectal cancer cell lines were measured using a 3-(4,5-dimethyl thiazol-2-yl)-2,5-diphenyl tetrazolium bromide (MTT) assay. First of all, cultured cells were seeded into 96-well plates (2000–5000 cells per well). After incubation for 24 h, the cells were pretreated with DMSO or AZ304 for 1 h. Then the indicated doses of Cetuximab were added. Cells were incubated for a further 48 or 72 h. For EGF stimulating assay, cells were incubated in reduced serum medium overnight and then treated with AZ304 or AZ304 + EGF (20 ng/ml) for 72 h. Twenty microliter of MTT solution (5 mg/ml) was added to each well followed by 4 h incubation at 37 °C. The cell culture medium was removed and the cells were lysed in 200 μl dimethylsulphoxide (DMSO) and the results were measured using a microplate reader (Model 550, Bio-Rad Laboratories, Hercules, CA, USA).
# Fig. 5 Anti-proliferative activity of AZ304 cannot be retained by EGF in CRC cell lines with different BRAF mutation status. a Two V600E mutant BRAF cell lines (RKO, HT-29) and two wild type BRAF cell lines (DiFi, Caco-2) were serum starved overnight and then treated with the indicated AZ304 or AZ304 + EGF for 72 h. […]
# [3] = 2 μM AZ304, 10 μg/ml Cetuximab or combination, 36 h
smiles,measurement,setting,value
COc1ccc2c(Nc3cc(NC(=O)c4cccc(C(C)(C)C#N)c4)ccc3C)ncnc2c1 [AZ304],"BRAF, p-ERK, p-AKT and p-mTOR levels",[1]; [3],decreased
same,EGFR phosphorylation (p-EGFR),[1]; [3],increased
same,phosphorylated SRC and STAT3,[1]; [3],relatively reduced expression levels
same,"cleaved caspase-9, caspase-3 and PARP","[1]; 2 μM AZ304, 10 μg/ml Cetuximab or combination, 48 h",overtly increased levels
same,p-ERK levels,"[1]; 2 uM AZ304, 6 h",reduced p-ERK levels in all four CRC cell lines
same,EC50,p-ERK in A375 cells,65 nM
same,change of anti-proliferative effects after combined treatment with EGF,[2],no significant reduction of anti-proliferative effects
